Source: patent publication US10280156B2, “Heteroaromatic chalcone derivatives and their medical use” (Medizinische Universität Wien, priority 2014, dated 2019)

Key:
MEC1 = test: Viability test (CellTiter-Blue/EZ4U) on MEC1 cells, 48 h; format: cell-based, human; conditions: 48 h incubation, nd = no significant cytotoxic activity up to 100 μM
Protocol: (§1) JURKAT and CCRF-CEM (T-cell acute lymphoblastic leukemia), HL60 and K562 representing acute and chronic myeloid leukemia, respectively, the chronic lymphocytic leukemia cell line MEC-1, and the diffuse large B-cell lymphoma cell line U-2940 were cultured in Gibco RPMI 1640+GlutaMAX (Life Technologies, Carlsbad, Calif., USA) supplemented with 10% fetal bovine serum gold (FBS gold; PAA Laboratories, Pasching, Austria) and 1% PenStrep (100 U/ml penicillin and 100 μg/ml streptomycin; PAA Laboratories), and maintained at 37° C. in humidified atmosphere with 5% CO2. The diffuse large B-cell lymphoma cell line OCI-LY7 was cultured in Gibco IMDM+GlutaMAX and 25 mM HEPES (Life Technologies) containing 20% FBS gold and 1% PenStrep.
(§2) All experiments with hematological cell lines were done using phenol red-free RPMI 1640+L-glutamine (PAA Laboratories) supplemented with 1% PenStrep and 10% FBS gold, except experiments with OCI-Ly7 which were carried out in Gibco IMEM+GlutaMAX and 25 mM HEPES containing 20% FBS gold and 1% PenStrep. Cells were incubated in triplicates with increasing concentrations of the compounds for 48 h, changes in viability were determined using the cell proliferation and cytotoxicity assays EZ4U (Biomedica Group, Austria) and CellTiter-Blue Cell Viability Assay (Promega, Madison, Wis., USA) following instructions of the manufacturers. IC50 values were calculated from two independent experiments using GraphPad Prism 5 software.
(§3) Initially, compounds were biologically tested in six concentration steps (0.1 μM; 1 μM; 5 μM; 10 μM; 50 μM; and 100 μM) using the CellTiter-Blue Cell Viability Assay (Promega, Madison, Wis., USA) and an incubation time of 48 hours. […] IC50 values were calculated from at least two independent experiments with 3 replicates each. In order to evaluate the biologic activity of the new compounds, cytotoxicity was compared to that of fludarabine, an already approved drug for the treatment of various B-cell malignancies. […] Differences in IC50 values for the different cell types can be explained by the biological and genetic particularities of each subtype of B-cell Non-Hodgkin lymphoma (Stacchini A et al. Leukemia Res 1999, 23, 127-136; Sambade C et al. Int J Cancer 2006, 118, 555-563; Chang H et al. Leukemia lymphoma 1995, 19, 165-171; Tweeddale M E et al. Blood 1987, 69, 1307-1314; Tweeddale M et al. Blood 1989, 74, 572-578).

M2-10B4 = test: Viability test on mouse fibroblast cell line M2-10B4, 48 h; format: cell-based; conditions: for IC50: Mus musculus, M210B4, 48 h, 48 h incubation, mouse fibroblast cell line; for cytotoxic potential on M2-10B4 (in words): mouse fibroblasts
Protocol: as §2
Structurally seen, the small molecule compound 1 represents a typical chalcone scaffold. It is characterized by an ortho-ethoxy-substituted phenyl part as ring A and a 2-naphthyl moiety symbolizing ring B. The focus of the present study was to guide the systematic identification of a growth inhibitor with specificity to neoplastic cells, as cytotoxicity towards healthy cells is mostly associated with adverse effects, which can be related to morbidity and mortality of the patient (Milligan D W et al. Brit J Haematol 2006, 135, 450-474). To discriminate in vitro between structural elements necessary for potent cytotoxicity towards tumor cells which, at the same time, clearly show less activity on normal cells, the compounds were additionally tested on the murine bone marrow fibroblast cell line M2-10B4. This cell line is regularly used as feeder layer when cultured with patient cells providing additional support and survival signals in particular in drug screens (Kurtova A V et al. Blood 2009, 114, 4441-4450).
as §3

U-2940 = test: Viability test on U-2940 cells, 48 h; format: cell-based, human; conditions: 48 h incubation, nd = no significant cytotoxic activity up to 100 μM
Protocol: as §1, §2, §3

OCI-Ly7 = test: Viability test on OCI-Ly7 cells, 48 h; format: cell-based, human; conditions: 48 h incubation, nd = no significant cytotoxic activity up to 100 μM
Protocol: as §1, §2, §3

Row | SMILES | IC50 (MEC1; Homo sapiens, MEC1, 48 h) | IC50 (M2-10B4) | melting point | IC50 (U-2940; Homo sapiens, U-2940, 48 h) | IC50 (OCI-Ly7; Homo sapiens, OCI-Ly7, 48 h) | cytotoxic potential on M2-10B4 (in words) (M2-10B4) | IC50 (OCI-Ly7) | IC50 (MEC1) | IC50 (U-2940)
1 | CCOc1ccccc1C(=O)/C=C/c1cc2ccccc2c2ccccc12 [Compound 12, 1-(2-Ethoxyphenyl)-3-(9-phenanthrenyl)-2-propen-1-one] | 1.63 µM | > 100 µM | 117 to 120 °C | 39.9 µM | – | – | – | – | –
2 | CCOc1ccccc1C(=O)/C=C/c1ccc(-c2cccs2)s1 [Compound 30, (E)-3-(2,2′-bithiophen-5-yl)-1-(2-ethoxyphenyl)-2-propen-1-one] | 0.02 µM | – | – | 3.13 µM | 0.02 µM | – | – | – | –
3 | CCCOc1ccccc1C(=O)/C=C/c1ccc2[nH]ccc2c1 [Compound 25, (E)-3-(1H-indol-5-yl)-1-(2-propoxyphenyl)-2-propen-1-one] | 0.14 µM | – | 114 to 116 °C | 7.1 µM | 0.12 µM | – | – | – | –
4 | CCOc1cccc(C(=O)/C=C/c2ccc3[nH]ccc3c2)c1 [Compound 23, (E)-1-(3-Ethoxyphenyl)-3-(1H-indol-5-yl)-2-propen-1-one] | 2.6 µM | – | 121 to 123 °C | 10 µM | 1.47 µM | – | – | – | –
5 | CCCOc1ccccc1C(=O)/C=C/c1cc2ccccc2[nH]1 [Compound 26, (E)-3-(1H-indol-2-yl)-1-(2-propoxyphenyl)-2-propen-1-one] | 0.04 µM | – | 112 to 114 °C | 10.1 µM | 0.08 µM | – | – | – | –
6 | CCCOc1ccccc1C(=O)/C=C/c1ccc2ccccc2c1 [Compound 3, 3-(2-Naphthyl)-1-(2-propoxyphenyl)-2-propen-1-one] | 0.13 µM | > 100 µM | – | 5.31 µM | 0.1 µM | – | – | – | –
7 | CCOc1cccc(C(=O)/C=C/c2ccc3c(c2)OCO3)c1 [Compound 34, (E)-3-(1,3-benzodioxol-5-yl)-1-(3-ethoxyphenyl)prop-2-en-1-one] | 8.73 µM | – | – | 18.8 µM | 6.35 µM | – | – | – | –
8 | CCOc1ccccc1C(=O)/C=C/c1ccc2cc(OC)ccc2c1 [Compound 7, 1-(2-Ethoxyphenyl)-3-(6-methoxy-2-naphthyl)-2-propen-1-one] | 7.16 µM | > 100 µM | – | 24.7 µM | 1.01 µM | no cytotoxic potential | – | – | –
9 | CCOc1cccc(C(=O)/C=C/c2csc3ccccc23)c1 [Compound 18, 3-(1-Benzothien-3-yl)-1-(3-ethoxyphenyl)-2-propen-1-one] | 2.21 µM | – | 103 to 106 °C | 7.59 µM | 1.67 µM | – | – | – | –
10 | CCOc1ccc(C(=O)/C=C/c2ccc3sccc3c2)cc1 [Compound 29] | 231 µM | – | 149 to 151 °C | – | – | – | – | – | –
11 | CCOc1ccc(C(=O)/C=C/c2ccc3[nH]ccc3c2)cc1 [Compound 24, (E)-1-(4-Ethoxyphenyl)-3-(1H-indol-5-yl)-2-propen-1-one] | 26.6 µM | – | 171 to 173 °C | 50 µM | 15.9 µM | – | – | – | –
12 | CCOc1ccc(C(=O)/C=C/c2cc3ccccc3[nH]2)cc1 [Compound 21, 1-(4-Ethoxyphenyl)-3-(1H-indole-2-yl)-2-propen-1-one] | – | – | 178 to 181 °C | – | 25.3 µM | – | – | – | –
13 | CCOc1cccc(C(=O)/C=C/c2ccc3sccc3c2)c1 [Compound 28] | 5.48 µM | – | 98 to 99 °C | 12.9 µM | 4.78 µM | – | – | – | –
14 | CCOc1ccc(C(=O)/C=C/c2cc3ccccc3o2)cc1 [Compound 33, (E)-3-(1-Benzofuran-2-yl)-1-(4-ethoxyphenyl)-2-propen-1-one] | 38.8 µM | – | 100 to 101 °C | 42.2 µM | 19.5 µM | – | – | – | –
15 | CCOc1ccccc1C(=O)/C=C/c1cc2ccccc2o1 [Compound 31, (E)-3-(1-Benzofuran-2-yl)-1-(2-ethoxyphenyl)-2-propen-1-one] | 0.2 µM | – | 79 to 81 °C | 7.1 µM | 0.05 µM | – | – | – | –
16 | CCOc1ccccc1C(=O)/C=C/c1cc2ccccc2s1 [Compound 27, (E)-3-(1-Benzothiophen-2-yl)-1-(2-ethoxyphenyl)-2-propen-1-one] | 0.06 µM | – | 95 to 98 °C | 2.31 µM | 0.07 µM | – | – | – | –
17 | C=Cc1cccc(/C=C/C(=O)c2ccccc2OCC)c1 [Compound 8, 3-(3-Ethenylphenyl)-1-(2-ethoxyphenyl)-2-propen-1-one] | 0.2 µM | > 100 µM | – | 2.5 µM | 0.5 µM | did not show any activity | – | – | –
18 | COc1ccccc1C(=O)/C=C/c1ccc2ccccc2c1 [Compound 2, 1-(2-Methoxyphenyl)-3-(2-naphthyl)-2-propen-1-one] | 0.43 µM | 41.8 µM | – | 4.09 µM | 0.46 µM | – | – | – | –
19 | CCOc1cccc(C(=O)/C=C/c2cc3ccccc3o2)c1 [Compound 32, (E)-3-(1-Benzofuran-2-yl)-1-(3-ethoxyphenyl)-2-propen-1-one] | 6.91 µM | – | 127 to 129 °C | 44.3 µM | 16.7 µM | – | – | – | –
20 | CCOc1cccc(C(=O)/C=C/c2ccc3ccccc3c2)c1 [Compound 16, 3-(2-Napthyl)-1-(3-ethoxyphenyl)-2-propen-1-one] | 2.85 µM | – | 97 to 100 °C | 16.2 µM | 1.76 µM | – | – | – | –
21 | Cc1ccccc1C(=O)/C=C/c1ccc2ccccc2c1 [Compound 6, 1-(2-Methylphenyl)-3-(2-naphthyl)-2-propen-1-one] | 6.36 µM | 72 µM | – | 10.3 µM | 4.92 µM | – | – | – | –
22 | CCOc1ccccc1C(=O)/C=C/c1c2ccccc2cc2ccccc12 [Compound 11, 3-(9-Anthranyl)-1-(2-ethoxyphenyl)-2-propen-1-one] | > 50 µM | > 50 µM | – | > 50 µM | > 50 µM | – | > 100 µM | > 100 µM | > 100 µM
23 | CCOc1ccccc1C(=O)/C=C/c1csc2ccccc12 [Compound 14, 3-(1-Benzothien-3-yl)-1-(2-ethoxyphenyl)-2-propen-1-one] | 0.17 µM | 8.2 µM | – | 0.86 µM | 0.1 µM | – | – | – | –
24 | CCCCOc1ccccc1C(=O)/C=C/c1ccc2ccccc2c1 [Compound 4, 1-(2-Butoxyphenyl)-3-(2-naphthyl)-2-propen-1-one] | 0.7 µM | > 100 µM | – | 5.31 µM | 0.12 µM | – | – | – | –
25 | CCOc1cccc(C(=O)/C=C/c2cc3ccccc3[nH]2)c1 [Compound 20, 1-(3-Ethoxyphenyl)-3-(1H-indole-2-yl)-2-propen-1-one] | 3.33 µM | – | 156 to 158 °C | – | 4.83 µM | – | – | – | –
26 | CCOc1ccc(C(=O)/C=C/c2ccc3ccccc3c2)cc1 [Compound 17, 3-(2-Napthyl)-1-(4-ethoxyphenyl)-2-propen-1-one] | – | – | 159 to 161 °C | – | – | – | – | – | –
27 | CCOc1ccc(C(=O)/C=C/c2csc3ccccc23)cc1 [Compound 19, 3-(1-Benzothien-3-yl)-1-(4-ethoxyphenyl)-2-propen-1-one] | 7.5 µM | – | 129 to 130 °C | 14.6 µM | 4.77 µM | – | – | – | –
28 | CCOc1ccccc1C(=O)/C=C/c1ccc2[nH]ccc2c1 [Compound 22, (E)-1-(2-Ethoxyphenyl)-3-(1H-indol-5-yl)-2-propen-1-one] | 0.05 µM | – | 151 to 153 °C | 1.71 µM | 0.03 µM | – | – | – | –
